Experimental data: patent EP4603105A1, “PHARMACEUTICAL COMPOSITION CONTAINING CYCLIC COMPOUND HAVING SELECTIVE KRAS INHIBITORY EFFECT AGAINST HRAS AND NRAS” (CHUGAI SEIYAKU KABUSHIKI KAISHA, priority 2022, dated 2024)
Where a SMILES comes first, the peptide text is derived from it. Bridges are numbered along the chain shown (N, C = ends). [ ]: non-standard residue; d: D form. The star is where a group is joined. hPhe(3-Cl-4-CF3) = N[C@@H](CCc1ccc(C(F)(F)F)c(Cl)c1)C(=O)O; NPrPhe(4-CF3) = CCCN[C@@H](Cc1ccc(C(F)(F)F)cc1)C(=O)O; NMeGly(cPent) = CN[C@H](C(=O)O)C1CCCC1; NMeD = CN[C@@H](CC(=O)O)C(=O)O; NMeNva = CCC[C@H](NC)C(=O)O; Morpholide = C1CN(*)CCO1; Ac4c = NC1(C(=O)O)CCC1; NPrGly = CCCNCC(=O)O; Sar = CNCC(=O)O

Key:
[1] = biological target: GDP-bound KRAS wild-type protein (Homo sapiens, UniProt P01116); assay: Binding to KRAS by surface plasmon resonance (SPR), dissociation constant KD; conditions: 1:1 binding model
Procedure, shortened: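 Affinity is measured by surface plasmon resonance at 30°C against captured, GDP-loaded RAS carrying a biotinylated Avi tag. Compounds are titrated by single-cycle kinetics, and KD comes from a 1:1 fit.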

[2] = biological target: GDP-bound NRAS wild-type protein (Homo sapiens, UniProt P01111); assay: Binding to NRAS by surface plasmon resonance (SPR), KD and KD ratio to KRAS
Procedure, shortened: (§1)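 SPR, 30°C: Avi-biotin RAS·GDP captured via Biotin CAPture (~100–300 RU); running buffer HBS pH 7.4, 1 mM DTT, 10 mM MgCl2, 0.01% Tween 20, 10 µM GDP, 4% DMSO. Single-cycle kinetics, 100 µL/min, 75 s injections; 1:1 model → KD.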

HRAS wild-type protein = HRAS wild-type protein (Homo sapiens, UniProt P01112); assay: Binding to HRAS by surface plasmon resonance (SPR), KD and KD ratio to KRAS
Procedure, shortened: as §1

[3] = tested on: human lung cancer strain NCI-H441; type: cell-based
Procedure, shortened: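 Proliferation was scored by […] measured after the reagent was added to cultures kept at 37°C in 5% carbon dioxide.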

[4] = ratio of KD for GDP-bound NRAS wild-type protein to KD for KRAS
[5] = ratio of KD for HRAS wild-type protein to KD for KRAS
[6] = ratio of the KD value with respect to GDP-bound NRAS wild-type protein to the KD value with respect to KRAS
[7] = ratio of the KD value with respect to HRAS wild-type protein to the KD value with respect to KRAS

Chain of GDP-bound KRAS wild-type protein (P01116 1-188 isoform P01116-2): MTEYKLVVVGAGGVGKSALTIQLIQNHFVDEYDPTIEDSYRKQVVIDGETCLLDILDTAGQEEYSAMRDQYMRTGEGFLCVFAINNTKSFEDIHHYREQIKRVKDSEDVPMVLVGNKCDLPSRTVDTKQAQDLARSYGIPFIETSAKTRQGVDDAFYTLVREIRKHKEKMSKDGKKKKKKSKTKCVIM
Chain of HRAS wild-type protein (P01112 whole entry): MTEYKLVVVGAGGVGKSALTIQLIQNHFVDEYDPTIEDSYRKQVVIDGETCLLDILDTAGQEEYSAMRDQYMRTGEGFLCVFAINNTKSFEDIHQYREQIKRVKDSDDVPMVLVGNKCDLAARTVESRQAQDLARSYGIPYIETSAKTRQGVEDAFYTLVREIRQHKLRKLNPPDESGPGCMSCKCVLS
Chain of GDP-bound NRAS wild-type protein (P01111 whole entry): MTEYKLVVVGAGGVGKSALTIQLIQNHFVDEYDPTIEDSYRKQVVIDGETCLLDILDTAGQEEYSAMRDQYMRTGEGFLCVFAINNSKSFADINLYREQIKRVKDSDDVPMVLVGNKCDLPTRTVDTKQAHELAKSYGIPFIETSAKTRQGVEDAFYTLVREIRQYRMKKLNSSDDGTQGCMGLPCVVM

Row | SMILES | Kd [1] [nM] | IC50 [3] [nM] | Kd ([1]; Single Cycle Kinetics) [nM] | NRAS /KRAS [2, 4] | HRAS /KRAS (HRAS wild-type protein; [5]) | NRAS /KRAS [2, 6] | HRAS /KRAS (HRAS wild-type protein; [7]) | NRAS /KRAS ([2]; ratio of KD value for GDP-bound NRAS wild-type protein to KD value for KRAS (SPR)) | HRAS /KRAS (HRAS wild-type protein; ratio of KD value for HRAS wild-type protein to KD value for KRAS (SPR))
1 | CC[C@H](C)[C@@H]1NC(=O)[C@H](COC)N(C)C(=O)C[C@@H](C(=O)N(C)CC)N(C)C(=O)[C@H](C2CCCC2)N(C)C(=O)C2(CC(C)(C)C2)NC(=O)[C@@H]2CC(F)(F)CN2C(=O)[C@H](CCc2ccc(C(F)(F)F)c(OC)c2)NC(=O)CN(C)C(=O)[C@H](Cc2ccc(C(F)(F)F)cc2)N2CC/C=C\C[C@@H](C2=O)N(C)C(=O)[C@@H]2CCN2C1=O [PP3136] | 0.63 | 47 | – | B (a compound having 3 or more and less than 10 is denoted as B) | B (a compound having 3 or more and less than 10 is denoted as B) | – | – | – | –
2 | CCC[C@H]1C(=O)N[C@@H]([C@@H](C)CC)C(=O)N(C)CC(=O)N(C)[C@H]2C/C=C\CCN(C2=O)[C@@H](Cc2ccc(C)cc2)C(=O)N(C)CC(=O)N[C@@H](CCc2cc(F)c(C(F)(F)F)c(F)c2)C(=O)N2C[C@H](CC)C[C@H]2C(=O)NC2(CCCC2)C(=O)N(C)[C@@H](C2CCCC2)C(=O)N(C)[C@H](C(=O)N(C)C)CC(=O)N1C [PP2216] | – | 50.8 | 0.23 | – | – | A (a compound having 10 or more and less than 20 is denoted as A) | A (a compound having 10 or more and less than 20 is denoted as A) | – | –
3 | CCO[C@@H]1C[C@H]2C(=O)NC3(CCC3)C(=O)N(C)[C@@H](C(CC)CC)C(=O)N(C)[C@H](C)CC(=O)N(C)[C@@H](CC(C)C)C(=O)N[C@@H]([C@@H](C)CC)C(=O)N(C)CC(=O)N(C)[C@H]3C/C=C\CCN(C3=O)[C@@H](Cc3ccc(F)cc3)C(=O)N(C)CC(=O)N[C@@H](CCc3cc(F)c(C(F)(F)F)c(F)c3)C(=O)N2C1 [PP1525] | – | 132 | 1.7 | – | – | – | – | A (a compound having 10 or more and less than 20 is denoted as A) | A (a compound having 10 or more and less than 20 is denoted as A)
4 | CCO[C@@H]1C[C@H]2C(=O)NC3(CC(C)(C)C3)C(=O)N(C)[C@@H](C3CCCC3)C(=O)N(C)[C@H](C(=O)N(C)C)CC(=O)N(C)[C@@H]([C@H](C)OC)C(=O)N[C@@H]([C@@H](C)CC)C(=O)N(C3CC3)CC(=O)N(C)[C@H]3C/C=C\CCN(C3=O)[C@@H](Cc3ccc(C)cc3)C(=O)N(C)CC(=O)N[C@@H](CCc3ccc(C(F)(F)F)c(OC)c3)C(=O)N2C1 [PP3191] | 0.49 | 38.9 | – | A (a compound having 10 or more and less than 20 is denoted as A) | A (a compound having 10 or more and less than 20 is denoted as A) | – | – | – | –

Second part, led by results:

Row | Kd [1] [nM] | IC50 [3] [nM] | Kd ([1]; Single Cycle Kinetics) [nM] | SMILES | NRAS /KRAS [2, 4] | HRAS /KRAS (HRAS wild-type protein; [5]) | NRAS /KRAS [2, 6] | HRAS /KRAS (HRAS wild-type protein; [7]) | NRAS /KRAS ([2]; ratio of KD value for GDP-bound NRAS wild-type protein to KD value for KRAS (SPR)) | HRAS /KRAS (HRAS wild-type protein; ratio of KD value for HRAS wild-type protein to KD value for KRAS (SPR))
5 | 3.4 | 112 | – | CCC[C@H]1C(=O)N[C@@H]([C@@H](C)CC)C(=O)N(C)CC(=O)N(C)[C@H]2C/C=C\CCN(C2=O)[C@@H](Cc2ccc(C)cc2)C(=O)N(C)CC(=O)N[C@@H](CCc2ccc(CC)c(Cl)c2)C(=O)N2C[C@H](OCC)C[C@H]2C(=O)NC2(CC(C)(C)C2)C(=O)N(C)[C@@H](C(CC)CC)C(=O)N(C)[C@H](C(=O)N(C)C)CC(=O)N1C [PP2779] | A (a compound having 10 or more and less than 20 is denoted as A) | A (a compound having 10 or more and less than 20 is denoted as A) | – | – | – | –
6 | – | 9.3 | 0.92 | CCC[C@H]1C(=O)N[C@@H]([C@@H](C)CC)C(=O)N(C)CC(=O)N(CCC)CC(=O)N(CCC)[C@@H](Cc2ccc(C(F)(F)F)cc2)C(=O)N(C)CC(=O)N[C@@H](CCc2ccc(C(F)(F)F)c(Cl)c2)C(=O)N2CCC[C@H]2C(=O)NC2(CCC2)C(=O)N(C)[C@@H](C2CCCC2)C(=O)N(C)[C@H](C(=O)N2CCOCC2)CC(=O)N1C [PP1949] ([NMeNva]I[Sar][NPrGly][NPrPhe(4-CF3)][Sar][hPhe(3-Cl-4-CF3)]P[Ac4c][NMeGly(cPent)][NMeD]-Morpholide; lactam N-11) | – | – | C (A compound having a KD ratio of 0.1 or more and less than 3 is denoted as C) | C (A compound having a KD ratio of 0.1 or more and less than 3 is denoted as C) | – | –
7 | – | 10.3 | 0.3 | CCO[C@@H]1C[C@H]2C(=O)NC3(CC(C)(C)C3)C(=O)N(C)[C@@H](C(CC)CC)C(=O)N(C)[C@H](C(=O)N(C)C)CC(=O)N(C)[C@@H](CC3CC3)C(=O)N[C@@H]([C@@H](C)CC)C(=O)N(C)CC(=O)N(C)[C@H]3C/C=C\CCN(C3=O)[C@@H](Cc3ccc(C)cc3)C(=O)N(C)CC(=O)N[C@@H](CCc3ccc(C(F)(F)F)c(Cl)c3)C(=O)N2C1 [PP2142] | – | – | AA (a compound having 20 or more is denoted as AA) | A (a compound having 10 or more and less than 20 is denoted as A) | – | –
